# According to PMC11611271, “Rapid prediction of key residues for foldability by machine learning model enables the design of highly functional libraries with hyperstable constrained peptide scaffolds” (PLOS Computational Biology, 2024):
# B1: 5ji4-RSP-1 (peptide)
# chain: PCECDVNGETYTVSSSEECEPLCWMYNEHFCRVHCG
# notes: hit from the 5JI4 scaffold phage libraries; free N- and C-termini; three disulfide bonds; source: synthetic peptide (CSBio), folded in vitro, HPLC purified
# B2: 5ji4-A7 (peptide)
# chain: H-PCECTILRGWHFLTSSAECERLCRKLGVTNCRVHCG-OH
# modifications: disulfide (positions not given here); also: three disulfide bonds, pairing not given here
# Tests used:
# CD28-Fc = CD28-Fc (Homo sapiens, UniProt P10747); assay: SPR binding to CD28-Fc; design: purchased R&D 342-CD-200; details: folded synthetic peptide; Biacore S200, 25°C, HBS-EP w. 5% DMSO, single-cycle kinetics; kinetic fitting (values not marked *); N.B. = no binding
# Sequence of CD28-Fc (P10747 19-152 limits assumed): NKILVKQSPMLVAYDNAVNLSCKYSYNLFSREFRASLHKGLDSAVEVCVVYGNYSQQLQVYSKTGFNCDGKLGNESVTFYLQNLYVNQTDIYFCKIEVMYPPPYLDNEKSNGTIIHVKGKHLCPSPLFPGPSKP
# Procedure: (§1) Peptide synthesis was done by CSBio (Menlo Park, CA). The linear peptides were synthesized as free N- and C- terminus. For the small-scale in vitro folding test, linear peptides were dissolved in 100% DMSO as 10 mg/ml stock, then 1/20 diluted into folding buffers. Five different buffer conditions were tested: [1] 0.1 M NH4HCO3 pH 9.0, 2 mM reduced glutathione, 0.5 mM oxidized glutathione, and 9% DMSO; [2] 0.1 M NH4HCO3 pH 8.0, 1 mM reduced glutathione, and 55% DMSO; [3] dI-water w. 5% DMSO; [4] 1X PBS pH 7.4 w. 10% DMSO; and [5] 1X PBS pH 7.4 w. 50% DMSO. Refolding was promoted by incubation at R.T. with gentle rotation and monitored by LC-MS for disulfide bond formation. […] Therefore, buffer condition was used as a universal refolding buffer for all HCP peptides. After refolding, peptides with three disulfide bonds were purified by HPLC according to standard procedure and subjected to SPR measurements.
# (§2) All binding experiments were performed using a Biacore S200 instrument (GE Healthcare) at 25°C at a flow rate of 30 μl/min in HBS-EP buffer (Cytiva, #BR100188) w. 5% DMSO. The kinetics and affinity measurements were carried out using single-cycle kinetics (SCK) and referenced by subtracting the signal from the blank flow cell. […]
# CD28 = assay: phage spot ELISA on CD28; type: binding
# Source text: (§3) To determine the performance of the libraries for ligand discovery we chose a panel of eight protein targets, which have no structural homology and a wide mass range (Fig 7C). We screened these eight targets with solution panning strategy and two additional plate panning for CD8α/β and CD28, thus ten panning campaigns in total. We consider clones showing spot phage ELISA signal > 0.3 and signal/noise ratio > 2 as positive hits. At least one binding hit was discovered for nine out of the ten panning campaigns, surpassing the success rate of the best DCP scaffolds reported previously. We also obtained the NGS data for these screening and the ranking of clones for their enrichment along the rounds of screening was analyzed and considered the top-ranking clones as potential hits. Based on their sequence diversity we selected 16 potential hits spanning five protein targets for peptide synthesis in their linear form. Seven of these are hits with positive phage ELISA signal and nine were selected based on NGS ranking without spot ELISA available. Subsequently, we conducted in vitro folding experiments on these peptides in various buffers. We observed a strong propensity for spontaneous folding regardless of the buffer condition. All HCP hits tested successfully folded into three-disulfide-containing product within two days in a universal buffer system (PBS, pH 7.4, 50% DMSO) without the need for a redox pair, as shown in Fig 8A. The binding of these folded peptides to their respective target proteins was confirmed using SPR (Table 4 and S1 Data) and binding kinetics are exemplified by the high-affinity peptide 5ji4-CRD7-2 (see Fig 8B). Among seven selected ELISA-positive hits, all of them were successfully synthesized and in vitro folded with three disulfide bonds and five were proven to be validated binders by SPR (Table 4). Nine peptides selected from the NGS ranking were synthesized and folded with the expected number of disulfide bonds and five of them bound to their target with affinities in the μM range as determined by SPR (Table 4). In general, binding affinities for these SPR-validated initial hits are weak, with Kd values in the micromolar range and fast on- and off-rates. There are two exceptions with binding affinities in the nanomolar range.
# (§4) The 5ji4 libraries were constructed following the Kunkel mutagenesis method and the solution panning protocol was followed as previously described. After four to five rounds of binding selection, while eluted pool was subjected to NGS analysis, individual phage clones were also picked and analyzed with phage spot ELISA. Positive clones were subjected to SANGER sequencing.
# Fz7CRD-Fc = biological target: T1, Fz7CRD-Fc (Homo sapiens, UniProt O75084); assay: SPR binding to Fz7CRD-Fc; details: folded synthetic peptide; Biacore S200, 25°C, HBS-EP w. 5% DMSO, single-cycle kinetics; kinetic fitting (values not marked *); N.B. = no binding
# T1 construct: Fz7CRD-Fc (R&D, #6178-FZ-50); purchased R&D 6178-FZ-50
# CD8α = assay: phage spot ELISA on CD8α; type: binding
# Source text: as §3, §4
# CD8α-Fc = biological target: T2, CD8α-Fc (Homo sapiens, UniProt P01732); assay: SPR binding to CD8α-Fc; details: folded synthetic peptide; Biacore S200, 25°C, HBS-EP w. 5% DMSO, single-cycle kinetics; kinetic fitting (values not marked *); N.B. = no binding
# T2 construct: purchased R&D AVI10927
# T2 sequence (P01732 22-182 limits assumed): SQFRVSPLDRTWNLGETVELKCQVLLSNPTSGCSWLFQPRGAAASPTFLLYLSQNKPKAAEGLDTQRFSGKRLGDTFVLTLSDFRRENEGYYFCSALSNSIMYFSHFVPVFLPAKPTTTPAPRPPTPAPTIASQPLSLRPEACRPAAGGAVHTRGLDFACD
# Procedure: as §1, §2
# human full-length HtrA1 = human full-length HtrA1 (human, UniProt Q92743 23-480); assay: cell-based or functional assay
# Sequence of human full-length HtrA1 (Q92743 23-480): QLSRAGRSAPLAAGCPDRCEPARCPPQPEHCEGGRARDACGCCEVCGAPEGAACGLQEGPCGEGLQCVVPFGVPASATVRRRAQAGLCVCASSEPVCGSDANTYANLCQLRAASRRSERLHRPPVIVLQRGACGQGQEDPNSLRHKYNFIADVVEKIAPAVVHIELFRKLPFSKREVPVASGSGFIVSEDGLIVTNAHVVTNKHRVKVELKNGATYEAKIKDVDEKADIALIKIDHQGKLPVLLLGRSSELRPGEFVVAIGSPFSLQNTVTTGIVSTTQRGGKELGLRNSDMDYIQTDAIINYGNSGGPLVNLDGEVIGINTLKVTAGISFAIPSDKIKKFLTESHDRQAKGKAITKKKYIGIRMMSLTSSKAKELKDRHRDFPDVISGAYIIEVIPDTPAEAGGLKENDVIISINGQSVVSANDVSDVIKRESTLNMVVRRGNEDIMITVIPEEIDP
# RSP02-Fc = biological target: T3, RSP02-Fc (UniProt Q6UXX9 22-243); assay: SPR; Biacore S200, Fc-fusion target on Sensor Chip Protein A, peptide flowed, single-cycle kinetics, three-fold dilution series from approximately 100 μM, 25°C, 30 μl/min, HBS-EP with 5% DMSO; 1:1 binding (kinetic) model, or no binding seen; details: both partners purified
# T3 construct: bought as Fc fusion; captured on a Protein A sensor chip by its Fc; source: bought: Biolegend, #786206
# T3 sequence (Q6UXX9 22-243): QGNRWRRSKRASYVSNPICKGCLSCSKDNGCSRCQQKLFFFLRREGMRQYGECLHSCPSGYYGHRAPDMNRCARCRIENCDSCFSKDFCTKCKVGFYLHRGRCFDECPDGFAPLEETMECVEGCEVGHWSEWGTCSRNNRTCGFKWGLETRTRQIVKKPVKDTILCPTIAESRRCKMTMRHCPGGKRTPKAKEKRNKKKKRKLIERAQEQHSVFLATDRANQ
# HtrA1^PD-S/A = biological target: T4, HtrA1^PD-S/A (human, UniProt Q92743 161-379, S328A); assay: SPR; Biacore S200, HtrA1^PD-S/A on Series S Sensor Chip SA, peptide flowed, 25°C, 30 μl/min, HBS-EP with 5% DMSO; fit model not told for these values; details: both partners purified
# T4 construct: serine protease HtrA1, D161-K379 with S328A; source: E. coli, produced in-house (Genentech)
# T4 sequence (Q92743 161-379 S328A): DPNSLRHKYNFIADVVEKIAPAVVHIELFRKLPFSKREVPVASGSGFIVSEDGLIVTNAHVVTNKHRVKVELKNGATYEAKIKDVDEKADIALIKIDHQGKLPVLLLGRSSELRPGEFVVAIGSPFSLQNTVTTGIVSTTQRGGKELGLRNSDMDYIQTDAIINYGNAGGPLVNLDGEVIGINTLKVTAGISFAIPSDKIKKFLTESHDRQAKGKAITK
# VEGF_(8-109) = VEGF_(8-109) (UniProt P15692); assay: SPR; Biacore S200, target on Series S Sensor Chip SA, peptide flowed, single-cycle kinetics, three-fold dilution series from approximately 100 μM, 25°C, 30 μl/min, HBS-EP with 5% DMSO; steady-state equilibrium model
# [1] = phage spot ELISA of the clone, positive hit: signal > 0.3 and signal/noise > 2
# [2] = phage spot ELISA signal/noise ratio
molecule,measurement,setting,value
"P C E C EDTTFFIIFNSSEE C ERL C RKLGVTN C RVH C G (bicyclic or more) [5ji4-CD28-4, 5JI4 library hit for CD28, synthesized and folded in vitro]",SPR Kd,CD28-Fc,N.B.
"P C E C DVNGETYTVSSSEG C ERL C SWDQGKW C RVH C G (bicyclic or more) [5ji4-CD28-7, 5JI4 library hit for CD28, synthesized and folded in vitro]",SPR Kd,CD28-Fc,N.B.
same,ELISA signal,CD28; [1],0.25
same,ELISA s/n,CD28; [2],3.48
"P C E C PIRPYGVPVKSSEE C ERL C MNDWATT C RVH C G (bicyclic or more) [5ji4-CRD7-5, 5JI4 library hit for CRD7, synthesized and folded in vitro]",SPR Kd,Fz7CRD-Fc,N.B.
"P C D C DVNGETYTVSSSEE C EPL C LNWLSSL C RVH C G (bicyclic or more) [5ji4-CD8-16, 5JI4 library hit for CD8α, synthesized and folded in vitro]",ELISA signal,CD8α; [1],3.43
same,ELISA s/n,CD8α; [2],37.34
same,SPR Kd,CD8α-Fc,N.B.
"P C E C LVTPYKDDYKSSEE C ERL C RKLGVTN C RVH C G (bicyclic or more) [5ji4-CD8-8, 5JI4 library hit for CD8α, synthesized and folded in vitro]",SPR Kd,CD8α-Fc,N.B.
PCECTILRGWHFLTSSAECERLCRKLGVTNCRVHCG,"inhibition of HtrA1 enzyme activity (cleavage of the fluorescence-quenched substrate H2-OPT), IC50",human full-length HtrA1,38 µM
B1,Kd,RSP02-Fc,22 ± 17 µM
B2,Kd,HtrA1^PD-S/A,2.72 µM
PCECFMYDILVGLASSEECKRLCWGFGQSDCRVHCG [5ji4-VEGF-5],Kd,VEGF_(8-109),86 µM
